Laboratory results as given in patent US4230698A, “2-Substituted arabinofuranosyl nucleosides and nucleotides” (Research Corporation, priority 1978, dated 1980).

Assays:
L-1210 leukemic cells = assay: In vivo cytotoxicity testing, survival of mice inoculated with L-1210 leukemic cells; parameters: species or system DBA/2 HaDD mice; conditions: control 8.7 days
Experimental: Cytarazid and cytaramin are evaluated in vivo for growth inhibitory potency against leukemic cells by intraperitoneally inoculating DBA/2 HaDD mice with an IP-PBS saline suspension of 1×10^6 L-1210 leukemic cells, waiting 24 hrs., and then administering the test compound intraperitoneally in 0.2 ml. of saline-phospate buffer solution (pH 7.0).

[1] = test system: Herpes Simplex type I virus; assay: In vitro antiviral testing, plaque reduction, Herpes Simplex type I; assay type: cell-based; conditions: for antiviral properties: plaque reduction
Description: (§1) Cytarazid and cytaramin, when tested in vitro against Herpes Simplex types I and II viruses, utilizing the plaque reduction technique described by Dulbecco, Proceedings National Academy of Sciences, vol. 38, p.

CR-CdR deaminase = assay: in vitro
Experimental: (§2) Partially purified CR-CdR deaminase is prepared from two different sources: (1) human liver, following the procedure of Wentworth and Wolfender, Biochemistry, vol. 14, p. 5099 (1975), and (2) blast cells of patients with acute myelocytic leukemia, using ammonium sulfate fractionation and DEAE column chromatography. The assay procedure is described by Wentworth and Wolfander, ibid.

L-1210 = assay: In vitro cytotoxicity testing (growth inhibition, Trypan Blue exclusion), L-1210; assay type: cell-based; conditions: Mus musculus, L1210, 40 hr, 37 degrees C, read-out: Concentration for 50% Inhibition of Growth
Experimental: (§3) Cytarazid, the β-anomer of the nucleoside prepared in Example 3 herein, and cytaramin, the nucleoside prepared in Example 4 herein, are evaluated in vitro for growth inhibiting potency against mammalian cancer cells by a micro technique, using the culture conditions described by Bobek et al. in J. Med. Chem., vol. 20, p. 458 (1977), whereby 0.5 ml. aliquots of medium (RPMI 1640.div.10% fetal calf serum) containing the test compound are introduced into 16×125 mm. screw cap culture tubes, followed by 0.5 ml. portions of the medium containing 1×10^5 mammalian cancer cells. The cultures are incubated at 37 degrees C. for 40 hr., after which time the viable cells are counted by Trypan Blue exclusion. During this time the cell number in the controls increases about four to nine-fold with an average cell viability of 99%. The test results are as follows:
(§4) Concentration for 50% Inhibition of Growth
(§5) Cell Line Cytarazid Cytaramin

HeLa = assay: In vitro cytotoxicity testing (growth inhibition, Trypan Blue exclusion), HeLa; assay type: cell-based; conditions: Homo sapiens, 40 hr, 37 degrees C, read-out: Concentration for 50% Inhibition of Growth
Experimental: as §3, §4, §5

[2] = test system: Herpes Simplex type II virus; assay: In vitro antiviral testing, plaque reduction, Herpes Simplex type II; assay type: cell-based; conditions: for antiviral properties: plaque reduction
Description: as §1

[3] = test system: Molt 4F (T-type from lymphoblastic leukemia); assay: In vitro cytotoxicity testing (growth inhibition, Trypan Blue exclusion), Molt 4F; assay type: cell-based; conditions: Homo sapiens, 40 hr, 37 degrees C, read-out: Concentration for 50% Inhibition of Growth
Experimental: as §3, §4, §5

in vitro = conditions: human, cr-cdr deaminase
Experimental: as §2

[4] = 50 μM, read-out: inhibition of the virus (log)

Row | half-life (in vitro) | Compound | Survival Time (L-1210 leukemic cells; 75 mg/kg IP twice per day 8 hrs apart for 2 days beginning 24 hrs after tumor inoculation) | antiviral properties [1] | deamination detected in 8 hrs (CR-CdR deaminase) | IC50 (L-1210) | IC50 (HeLa) | antiviral properties [2] | IC50 [3] | Survival Time (L-1210 leukemic cells; 40 mg/kg IP twice per day 8 hrs apart for 2 days beginning 24 hrs after tumor inoculation) | inhibition at 50 µM ([1]; 50 μM) | log reduction at 50 µM [1, 4] | inhibition at 50 µM ([2]; 50 μM) | log reduction at 50 µM [2, 4]
1 | – | Nc1ccn([C@@H]2O[C@H](CO)[C@@H](O)[C@@H]2N)c(=O)n1 [Cytaramin, 1-(2-amino-2-deoxy-β-D-arabinofuranosyl) cytosine] | > 120 days | significant antiviral properties | no significant deamination | 4000 nM | 30000 nM | significant antiviral properties | – | – | – | – | – | –
2 | – | [N-]=[N+]=N[C@H]1[C@H](O)[C@@H](CO)O[C@H]1n1ccc(N)nc1=O [Cytarazid, 1-(2-azido-2-deoxy-β-D-arabinofuranosyl) cytosine] | – | significant antiviral properties | no significant deamination | 600 nM | 200 nM | significant antiviral properties | 70 nM | > 120 days | > 99.9% | > 3 | > 99% | > 2
3 | 45 min | Nc1ccn([C@@H]2O[C@H](CO)[C@@H](O)[C@@H]2O)c(=O)n1 [cytarabine, reference compound] | – | – | – | – | – | – | – | – | – | – | – | –
